According to patent US5258395A, “Thiazole compounds as inhibitors of SRS-A” (Yamanouchi Pharmaceutical Co., Ltd., priority 1984, dated 1993):

Assays:
[1] = test system: SRS-A-induced contraction of guinea pig ileum; experiment: Inhibition of SRS-A-induced contraction of guinea pig ileum; settings: submaximal concentration of SRS-A (derived from guinea-pig lung), 20 min incubation, read-out: Anti-SRS-A GP ileum IC50
Method: (§1) Initiation of SRS-A- and LTD4 -Induced Contraction of Guinea Pig Ileum and Trachea
(§2) Method: Male Hartley guinea-pigs, weighing 500 to 700 g were killed by a blow on the head. The ileum and tracheal strips prepared according to the method of Constantine (1965) were suspended with 1.0 g tension in an organ bath containing 10 ml of Tyrode's solution equilibrated with a mixture of 95% O2 and 5% CO2 at 37° C. The tissues were equilibrated for 60 min.; during this period the Tyrode solution was replaced every 15 min. and the loading tension was adjusted to 1.0 g. The developed tension of the tissues was measured isometrically with a strain gauge transducer, and recorded on a Recticorder. Both the contractile response of the ileum to submaximal concentration of SRS-A (derived from guinea-pig lung) and the tracheal response to 10^-8 M LTD4 were measured in the absence and then the presence of various concentrations of test compounds. The incubation time of the compounds was 20 min.

[2] = test system: SRS-A-mediated anaphylactic asthma; experiment: Inhibition of SRS-A-mediated anaphylactic asthma in conscious guinea-pigs; type: in vivo, guinea pig; settings: for Time to onset of cough / Mortality: 30 min before antigen challenge; for Time to onset of cough: N=8
Method: Inhibition of SRS-A-Mediated Anaphylactic Asthma in Conscious Guinea-Pigs
Method: Male Harley guinea-pigs, weighing 370 to 410 g were passively sensitized by intravenously injecting 1 ml/kg of rabbit […] anti-bovine serum albumin serum (PHA titer: 20480). Twenty-four hours after the sensitization, indomethacine (2 mg/kg), mepyramine (2 mg/kg) and propranolol (0.3 mg/kg) were injected into the saphenous vein 20, 5 and 5 min., respectively, prior to the antigen challenge. Then, animals were placed in an 11 liter chamber connected to a glass nebulizer, and 1% solution of bovin serum albumin was sprayed into the chamber for 30 seconds. The animals were exposed to the antigen aerosol for 2 min. and observed for 15 min. after challenge. The time from the start of inhalation to the onset of cough and the mortality were recorded. Test compounds were orally administered 30 min. before antigen challenge.
^a) Animals were pretreated with mepyramine (2 mg/kg i.v.),
propranolol (0.3 mg/kg i.v.) and indomethacine (2 mg/kg i.v.) 5, 5 and 20
min., respectively, prior to antigen challenge.
^b) Test compound was orally administered 30 min. before antigen

rats = experiment: Toxicity, oral administration to rats; type: in vivo; settings: orally
[3] = test system: LTD4-induced contraction of guinea pig trachea; experiment: Inhibition of LTD4-induced contraction of guinea pig trachea; settings: 10^-8 M LTD4, 20 min incubation, read-out: Anti-LTD4 GP trachea IC50
Method: as §1, §2

mice = experiment: Toxicity, oral administration to mice; type: in vivo; settings: orally
SRS-A = settings: cited from earlier work
[4] = cited from earlier work

SMILES: CCCc1c(OCCCSc2nnc(N)s2)ccc(C(C)=O)c1O [Example 2, 4-[3-[(5-amino-1,3,4-thiadizol-2-yl)thio]propoxy]-2-hydroxy-3-propylacetophenone]
- IC50 [1]: 180 nM

SMILES: CCCc1c(OCCCSc2nnc(S)s2)ccc(C(C)=O)c1O [Example 7, 2-Hydroxy-4-[[3-(5-mercapto-1,3,4-thiadiazol-2-yl)thio]propoxy]-3-propylacetophenone]
- IC50 [1]: 110 nM

SMILES: CCCc1c(OCCCSc2nnc(SCC(=O)O)s2)ccc(C(C)=O)c1O [Example 21, [[5-[[3-(4-acetyl-3-hydroxy-2-propylphenoxy)propyl]thio]-1,3,4-thiadiazol-2-yl]thio]acetic acid]
- Inhibition of SRS-A-mediated anaphylactic asthma (in words) ([2]; 3 mg/kg p.o.): tended to inhibit the SRS-A-mediated anaphylactic asthma in conscious guinea-pigs, but this effect was not significant
- Time to onset of cough ([2]; 3 mg/kg p.o., control 293 ± 22): 377 ± 51 s
- Mortality ([2]; 3 mg/kg p.o., control 6/8): 5/8
- Inhibition of SRS-A-mediated anaphylactic asthma (in words) ([2]; 10 mg/kg p.o. or higher): significantly inhibited the SRS-A-mediated anaphylactic asthma
- Time to onset of cough ([2]; 10 mg/kg p.o., control 281 ± 19, * significant vs control): 397 ± 42 s
- Mortality ([2]; 10 mg/kg p.o., control 7/8, * significant vs control): 2/8
- Time to onset of cough ([2]; 30 mg/kg p.o., control 281 ± 11, ** p < 0.01 vs control): 457 ± 42 s
- Mortality ([2]; 30 mg/kg p.o., control 7/8, * significant vs control): 2/8
- minimum fatal dose (rats): more than 1000 mg/kg
- IC50 [3]: 130 nM
- minimum fatal dose (mice): more than 1000 mg/kg
- IC50 [1]: 60 nM

SMILES: CCCc1c(OCCCCSc2nnc(SCC(=O)O)s2)ccc(C(C)=O)c1O [Example 23, [[5-[[4-(4-acetyl-3-hydroxy-2-propylphenoxy)butyl]thio]-1,3,4-thiadiazol-2-yl]thio]acetic acid]
- IC50 [1]: 150 nM

SMILES: CCCc1c(OCCCCCSc2nnc(SCC(=O)O)s2)ccc(C(C)=O)c1O [Example 24, [[5-[[5-(4-Acetyl-3-hydroxy-2-propylphenoxy)pentyl]thio]-1,3,4-thiadiazol-2-yl]thio]acetic acid]
- IC50 [1]: 190 nM

SMILES: CCCc1c(OCCCSc2nnc(SCCC(=O)O)s2)ccc(C(C)=O)c1O [Example 26]
- IC50 [1]: 120 nM

SMILES: CCCc1c(OCCCSc2snc(O)c2C(=O)O)ccc(C(C)=O)c1O [Example 27, 5-[[3-(4-acetyl-3-hydroxy-2-propylphenoxy)propyl]thio]-3-hydroxy-4-isothiazol carboxylic acid]
- IC50 [1]: 190 nM

SMILES: CCCc1c(OCCCSc2nnc(NC(=O)CC(=O)O)s2)ccc(C(C)=O)c1O [Example 33, 3-[[5-[[3-(4-acetyl-3-hydroxy-2-propylphenoxy)propyl]thio]-1,3,4-thiadiazol-2-yl]amino]-3-oxopropionic acid]
- IC50 [1]: 91 nM

SMILES: CCCc1c(OCCCSc2nnc(NC(=O)C(=O)O)s2)ccc(C(C)=O)c1O [Example 36, N-[5-[[3-(4-Acetyl-3-hydroxy-2-propylphenoxy)propyl]thio]-1,3,4-thiadizol-2-yl]oxamic acid]
- IC50 [1]: 140 nM

SMILES: CCCc1c(OCCCSc2cc(C(=O)O)nc(SC)n2)ccc(C(C)=O)c1O [Example 37, 6-[[3-(4-Acetyl-3-hydroxy-2-propylphenoxy)propyl]thio]-2-methylthio-4-pyrimidinecarboxylic acid]
- IC50 [1]: 52 nM

SMILES: CCCc1c(OCCCSc2nnc(SCCCC(=O)O)s2)ccc(C(C)=O)c1O [Example 38, 4-[[5-[[3-(4-Acetyl-3-hydroxy-2-propylphenoxy)propyl]thio]-1,3,4-thiadiazol-2-yl]thio]butyric acid]
- IC50 [3]: 230 nM
- IC50 [1]: 38 nM

SMILES: CCCc1c(OCCCSc2nnc(SCCCCC(=O)O)s2)ccc(C(C)=O)c1O [Example 41, 5-[[5-[[3-(4-Acetyl-3-hydroxy-2-propylphenoxy)propyl]thio]-1,3,4-thiadiazol-2-yl]thio]valeric acid]
- IC50 [1]: 64 nM

SMILES: CCCc1c(OCCCSc2nnc(SCCCCCC(=O)O)s2)ccc(C(C)=O)c1O [Example 42, 6-[[5-[[3-(4-Acetyl-3-hydroxy-2-propylphenoxy)propyl]thio]-1,3,4-thiadizol-2-yl]thio]hexanoic acid]
- IC50 [1]: 130 nM

SMILES: CCCc1c(OCCCSc2nnc(SC(C)CCC(=O)O)s2)ccc(C(C)=O)c1O (stereo not shown) [Example 44, 4-[[5-[[3-(4-Acetyl-3-hydroxy-2-propylphenoxy)propyl]thio]-1,3,4-thiadizol-2-yl]thio]valeric acid]
- IC50 [1]: 130 nM

SMILES: CCCc1c(OCCCSc2nnc(SCC(=O)N(C)O)s2)ccc(C(C)=O)c1O [Example 51, 2-[[5-[[3-(4-acetyl-3-hydroxy-2-propylphenoxy)propyl]thio]-1,3,4-thiadiazol-2-yl]thio]-N-hydroxy-N-methylacetamide]
- IC50 [3]: 420 nM
- IC50 [1]: 160 nM

SMILES: CCCc1c(OCC(O)COc2ccc3c(=O)cc(C(=O)O)oc3c2CCC)ccc(C(C)=O)c1O (stereo not shown) [FPL 55712]
- anti-SRS-A activity in isolated tissues (SRS-A): potent anti-SRS-A activity in isolated tissues
- biological half life ([4]; in vivo): very short
- absorption by oral route ([4]; oral route): very poor
